The test system of test [1] is collagen. The experiment in a line: Hydroxyproline assay of carotid collagen content. In kind it is in vivo, FVB/NJ (FVB) mice. The following applies: 14 days post-ligation; three carotid arteries pooled per group; colorimetric chloramine T; mean ± SEM, n = 3. On the procedure: Animals were anesthetized with isoflurane inhalation. The left common carotid artery was exposed, dissected free from the surrounding connective tissue and completely ligated with 6-0 silk suture just proximal to the carotid bifurcation. […] 4–10 mice were included in each experimental group.
After reconstituting with water, samples were measured using a colorimetric chloramine T assay. Three independent experiments were performed for statistical analysis.
For in vivo experiments, the data are shown as the mean ± SEM. For in vitro experiments, the data shown are the means ± SD of a representative experiment, at least 3 independent experiments were performed. One-way ANOVA with post-hoc testing were used for data analysis with GraphPad Prism software (GraphPad, San Diego, CA). If normality test failed, nonparametric Kruskal-Wallis test followed by Dunn's post-hoc test were used. P > 0.05 was not considered significant.

The test system of test [2] is VCAM-1. As to the kind of experiment: Western blot of VCAM-1 in TNF-α-treated HUVECs. In kind it is cell-based, human. The following applies: in words. The procedure:
Human umbilical vein endothelial cells (HUVECs) and A7r5 SMCs were provided by Resource Center (SB3, NSC 100-2325-B-080-001), National Research Program for Biopharmaceuticals (Hsinchu, Taiwan). HUVECs were maintained in M199 (Life Technologies, Carlsbad, CA) with 25U/ml heparin (Sigma-Aldrich, St. Louis, MO), 10% fetal bovine serum (FBS) and endothelial cell growth supplement (ECGS; Millipore, Billerica, MA). A7r5 SMCs were grown in Dulbecco’s Modified Eagle’s Medium (DMEM) containing high glucose, supplemented with 10% fetal bovine serum. Human U937 cells were grown in RPMI1640 with 10% FBS.
Tissues or cells were homogenized with RIPA buffer supplemented with protease inhibitor cocktail (Sigma-Aldrich, St. Louis, MO). Cell lysates were spun at 12,000 rpm for 15 min at 4°C, then electrophoresed on 10% SDS-PAGE gel and transferred to nitrocellulose. […]
Fig 8 R1R2 decreases TNF-α-induced monocyte U937 cell adhesion to HUVECs and transendothelial migration and reduces ICAM-1 and VCAM-1 levels. […] Calcein-AM labeled U937 monocyte adhesion to TNF-α HUVECs was quantitated by fluorescence intensity. Microscopic images showing U937 monocytes adhering to HUVECs as assessed by in vitro adhesion assay. […]
In general terms: Immunoblotting shows a protein as a band on a membrane.

This note sets out measurements from PMC4326127, “Collagen Inhibitory Peptide R1R2 Mediates Vascular Remodeling by Decreasing Inflammation and Smooth Muscle Cell Activation” (PLoS ONE, 2015).

On to “GLNGENQKEPEQGERGEAGPPLSGLSGNNQGRPSLPGLNGENQKEPEQGERGEAGPP [R1R2]”, for which the “collagen content, hydroxyproline assay” value in test [1] was 1.522 ± 0.077. The “VCAM-1 expression on HUVECs” value in test [2] is “significantly decreased”.
